Data on 6 compounds can be found in patent US20030198661A1, “Antioxidant compositions and methods for companion animals” (MARS INCORPORATED, priority 2000, published 2003).

SMILES strings stand for the structures.

For data set [1] the following is noted: in vivo.
A further data set has as its system rabies. Type of data set: in vivo. The conditions noted are these: healthy adult cats; once daily oral supplement at Table 13 levels.
A short description of data set [2]: Plasma vitamin C in dogs after dietary vitamin C. Type of data set: in vivo. The protocol: Samples are prepared under subdued lighting at all times.
A preferred minimal dose of vitamin C to achieve an increase in plasma in cats is 20 mg/400 kcal. A preferred minimal dose of vitamin C tested to achieve an increase in plasma in dogs was 27 mg/400 kcal.

For data set [3] the following is noted: cats; oral α-tocopherol acetate supplements.
Data set [4] in a line: Plasma α-tocopherol response to supplementation in healthy dogs (Example 10). It is filed as in vivo. The source says: Vitamin E is the collective name for 8 naturally occurring molecules, 4 tocopherols and 4 tocotrienols. The biological activity of the various forms roughly correlates with their antioxidant activities with the order of relative peroxyl scavenging reactivities of α>β>γ>δ-tocopherol. […] The minimum requirement for vitamin E in adult dogs has been established as 2.5 IU α-tocopherol/400 kcal diet (Nutrient Requirements of Dogs (1985) National Research Council (U.S.) National Academy Press Washington D.C. ISBN:0-309-03496-5). Prepared petfoods typically contain up to 10 times this amount but across the normal ranges of vitamin E in petfoods, plasma concentrations tend to be constant. In a study to evaluate the impact of supplementary vitamin E on the plasma response, 6 adult dogs, maintained on a nutritionally complete (see diet reference section) canned dog food (vitamin E content 8.2 mg/400 kcal (8.21U/400 kcal), were offered a supplement equivalent to 100 IU vitamin E/day for 6 weeks. A control group of 6 dogs was maintained under the same conditions but received no dietary supplement. Plasma α-tocopherol was monitored during, and for 4 weeks following, the supplementation period.

For data set [5] the following is noted: dog, in vivo.

As for `O=C1O[C@H]([C@@H](O)CO)C(O)=C1O` [Vitamin C, L-ascorbic acid], the “plasma vitamin C levels versus baseline within 7 days” value in data set [1] was “significantly increased”. In addition, in the data set with rabies, the “anti-rabies antibody response to vaccination versus unsupplemented controls” value is “greater”. Moreover, the “minimal dose of vitamin C tested to achieve an increase in plasma” value in data set [2] is reported as 27 mg/400 kcal.

In the case of `CC(=O)Oc1c(C)c(C)c2c(c1C)CCC(C)(CCC[C@H](C)CCC[C@H](C)CCCC(C)C)O2` (stereo partly drawn) [Vitamin E, alpha-tocopherol acetate], the “plasma vitamin E levels following oral supplementation” value in data set [3] is on record as “significantly increased”. Moreover, the “anti-rabies antibody response to vaccination versus unsupplemented controls” value in the data set on rabies was “greater”.

Turning to `CC1=C(/C=C/C(C)=C/C=C/C(C)=C/C=C/C=C(C)/C=C/C=C(C)/C=C/C2=C(C)CCCC2(C)C)C(C)(C)CCC1` [beta-carotene], in the data set with rabies, the “anti-rabies antibody response to vaccination versus unsupplemented controls” value is recorded as “greater”.

Consider `CC(C)=CCC/C(C)=C/C=C/C(C)=C/C=C/C(C)=C/C=C/C=C(C)/C=C/C=C(C)/C=C/C=C(\C)CCC=C(C)C` [lycopene], for which, in the data set on rabies, the “anti-rabies antibody response to vaccination versus unsupplemented controls” value is “particularly marked”.

Turning to `NCCS(=O)(=O)O` [taurine, aminoethylsulfonic acid], in the data set with rabies, the “anti-rabies antibody response to vaccination versus unsupplemented controls” value is “greater”.

In the case of `Cc1c(C)c2c(c(C)c1O)CC[C@@](C)(CCC[C@H](C)CCC[C@H](C)CCCC(C)C)O2` [α-tocopherol], the “Plasma α-tocopherol” value is on record as 15.9 in data set [4] (Test group (100 IU vitamin E/day for 6 weeks), Baseline); 32.6 in data set [4] (Test group (100 IU vitamin E/day), Day 28); 35.4 in data set [4] (Test group (100 IU vitamin E/day), Day 42); 28.2 ± 6.87 in data set [4] (Test group, Day 70 (day 28 post-supplementation)). The “individual plasma α-tocopherol levels, median” value in data set [5] was 21.1 mg/L.
